Assay results: US12286429B2, “5-oxo-1,2,3,5,8,8a-hexahydroindolizine-3-carboxamide derivatives useful as a factor XIa inhibitors” (Janssen Pharmaceutica NV, priority 2021, dated 2025)

Assays:
[1] = biological target: Factor XIa (Homo sapiens, UniProt P03951); experiment: Factor XIa inhibition assay utilizing a fluorophore-quencher pair peptide substrate (FLINT); type: biochemical; conditions: 11-point, 3-fold serial dilution, top 100 nM; 30 min preincubation; 15 μM 5Fam-KLTRAETV-K5Tamra substrate; kinetic reads over 30 min; read-out: FXIa Inhibition IC50
Factor XIa, sequence (P03951 388-625 limits assumed): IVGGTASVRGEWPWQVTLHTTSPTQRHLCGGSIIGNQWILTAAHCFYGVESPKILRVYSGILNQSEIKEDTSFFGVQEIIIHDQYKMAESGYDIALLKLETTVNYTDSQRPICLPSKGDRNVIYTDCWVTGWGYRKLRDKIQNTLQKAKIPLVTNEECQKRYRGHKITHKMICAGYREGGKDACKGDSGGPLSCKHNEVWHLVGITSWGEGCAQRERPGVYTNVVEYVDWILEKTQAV
Factor XIa, sequence (P03951 19-387 partner limits assumed): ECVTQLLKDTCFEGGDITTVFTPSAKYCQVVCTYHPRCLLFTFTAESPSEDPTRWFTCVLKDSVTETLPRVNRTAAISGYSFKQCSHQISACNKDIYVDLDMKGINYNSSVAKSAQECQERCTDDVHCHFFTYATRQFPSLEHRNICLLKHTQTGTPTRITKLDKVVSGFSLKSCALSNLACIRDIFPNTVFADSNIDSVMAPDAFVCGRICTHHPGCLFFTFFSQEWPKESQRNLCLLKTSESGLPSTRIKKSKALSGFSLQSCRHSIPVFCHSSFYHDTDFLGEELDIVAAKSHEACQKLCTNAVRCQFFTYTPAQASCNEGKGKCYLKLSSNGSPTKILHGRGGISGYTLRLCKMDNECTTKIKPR
Source text: Biological Example 1: Factor XIa Inhibition Assay Utilizing a Fluorophore-Quencher Pair Peptide Substrate
A fluorescence intensity (FLINT) based assay was used to monitor inhibition of Factor XIa. The peptide substrate, 5Fam-KLTRAETV-K5Tamra (purchased from New England Peptide) was chosen based on the FXI sequence. Conversion of zymogen FXI to its activated form, FXIa, occurs by proteolytic cleavage by […] at two sites, Arg146 and Arg180. The custom peptide used in this assay was based on the Arg146 cleavage site of FXI. The peptide substrate was designed with a fluorophore-quencher pair, where the fluorescence is quenched until FXIa cleaves the 8-mer peptide after the Arg residue.
The Factor XIa FLINT assay was used with the following 5Fam-KLTRAETV-K5Tamra assay buffer: 50 mM Tris, pH 7.5, 100 mM NaCl, 5 mM CaCl2, 0.1 mg/mL BSA, 0.03% CHAPS. Assay buffer was prepared by mixing all ingredients fresh. 5Fam-KLTRAETV-K5Tamra peptide substrate was first prepared at 10 mM in 100% DMSO, then diluted to 3 mM in 100% DMSO. Assay buffer was then added directly to the 3 mM stock of substrate to prepare the 30 μM 2× working concentration (15 μM final concentration). The 2× Factor XIa stock solution was prepared by diluting 6.562 μM stock in 1× assay buffer for a […].
Test compound(s) were run in an 11-point, 3-fold serial dilution with a final top compound concentration of 100 nM. Final DMSO in assay was 2%. FXIa was preincubated with compound for 30-minutes and then substrate was added to initiate the reaction. The assay was run with kinetic (KIN) reads at 5 min intervals over 30 minutes. […] More specifically, the assay was run as follows: • 100 nL of 0.01 mM test compound was dispensed into black 384-well non-binding Greiner BioOne 784900 plate for 0.1 μM final concentration, • 5 μL of 1× assay buffer was dispensed to column 24 (low control) and 5 μL 2× Factor XIa solution was dispensed to columns 1-23 (column 23 high control); • the plate was centrifuged with a “cover” plate at 500 rpm for 1 min • the plate was pre-incubated for 30 minutes at room temperature with plate covered; • 5 μL of 2×5Fam-KLTRAETV-K5Tamra peptide substrate was dispensed into the entire plate, columns 1-24; • the plate was centrifuged with a “cover” plate at 500 rpm for 1 min; • the plate was read monitoring fluorescence intensity on the BMG PHERAStar at room temperature, using fluorescence module 485 nm/520 nm.
(§1) Percent inhibition (IC50) curves were generated per compound tested, and data was analyzed using a 4-parameter logistic fit using GeneData Screener. The relative fluorescence unit (RFU) values were normalized to percent inhibition using the following equation: % inhibition=((HC−LC)−(compound−LC)/(HC−LC))*100
where LC—low control=mean signal of no Factor XIa or 100% inhibition of Factor XIa; HC—high control=mean signal of Factor XIa+5Fam-KLTRAETV-K5Tamra peptide substrate with DMSO only.
(§2) An 11-point dose response curve for the test compound(s) was generated using GENDATA to determine IC50 value based on the following equation: Y=Bottom+(Top−Bottom)/(1+10^((log IC50−X)*HillSlope))
(§3) where Y is the % inhibition in the presence of X inhibitor concentration, Top=high control=mean signal of Factor XIa+5Fam-KLTRAETV-K5Tamra peptide substrate with DMSO only; Bottom=low control—mean signal of no Factor XIa or 100% inhibition of Factor XIa; HillSlope—Hill coefficient; and IC50=concentration of compound with 50% inhibition in relation to top/high control.

[2] = biological target: human plasma kallikrein (Homo sapiens, UniProt P03952); experiment: Kallikrein inhibition assay utilizing a quenched AMC peptide substrate (FLINT); type: biochemical; conditions: 11-point, 3-fold serial dilution, top 1 μM; 30 min preincubation; 2 nM kallikrein; 50 μM Z-Gly-Pro-Arg-AMC; kinetic reads over 30 min
human plasma kallikrein, sequence (P03952 391-638 limits assumed): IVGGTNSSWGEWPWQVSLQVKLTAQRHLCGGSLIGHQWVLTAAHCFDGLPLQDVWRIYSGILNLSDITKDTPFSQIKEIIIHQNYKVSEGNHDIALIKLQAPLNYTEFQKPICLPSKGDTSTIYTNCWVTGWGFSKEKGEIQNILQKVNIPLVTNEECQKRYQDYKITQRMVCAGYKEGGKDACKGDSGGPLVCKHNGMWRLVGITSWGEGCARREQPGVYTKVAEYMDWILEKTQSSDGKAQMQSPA
human plasma kallikrein, sequence (P03952 20-390 partner limits assumed): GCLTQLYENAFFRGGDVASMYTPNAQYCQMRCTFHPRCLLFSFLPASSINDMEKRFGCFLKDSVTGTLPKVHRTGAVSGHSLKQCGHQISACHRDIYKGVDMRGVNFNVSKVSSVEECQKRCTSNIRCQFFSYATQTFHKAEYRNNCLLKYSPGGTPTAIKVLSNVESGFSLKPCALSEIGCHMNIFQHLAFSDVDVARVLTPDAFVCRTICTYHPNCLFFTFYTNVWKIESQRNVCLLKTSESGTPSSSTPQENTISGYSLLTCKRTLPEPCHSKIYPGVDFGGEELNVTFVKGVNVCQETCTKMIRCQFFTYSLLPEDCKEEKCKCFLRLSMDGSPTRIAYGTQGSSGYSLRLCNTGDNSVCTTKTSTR
Method: Biological Example 2: Kallikrein Inhibition Assay Utilizing a Quenched AMC Peptide Substrate
A fluorescence intensity (FLINT) based assay was used to monitor inhibition of human plasma kallikrein. The peptide substrate, Z-Gly-Pro-Arg-AMC (Purchased from Bachem; Catalog #I-1150) was chosen based on its relatively low KM for kallikrein which enables running the assay at lower substrate concentrations to control background fluorescence. The kinetic parameters for this substrate were determined by fitting titration data to the Michaelis-Menten equation yielding a KM=40 μM, kcat=0.76 s^−1, and kcat/KM=18932 M^−1s^−1.
The Kallikrein FLINT assay was used with the following Z-Gly-Pro-Arg-AMC assay buffer: 50 mM Tris, pH 7.5, 100 mM NaCl, 5 mM CaCl2, 0.1 mg/mL BSA, 0.03% CHAPS. Assay buffer was prepared by mixing all ingredients fresh. 2× Z-Gly-Pro-Arg-AMC peptide substrate was prepared by diluting 10 mM stock into 1× assay buffer for a 100 μM working concentration (50 μM final concentration). The 2× kallikrein stock solution was prepared by diluting 14.76 μM stock in 1× assay buffer for a 4 nM working stock solution (2 nM final concentration).
Test compound(s) were run in an 11-point, 3-fold serial dilution with a final top compound concentration of 1 μM. Final DMSO in assay was 2%. Plasma kallikrein was pre-incubated for 30-minute with compound and then 50 μM substrate was added to initiate the reaction. The assay was run with kinetic (KIN) reads at 5 min intervals over 30 minutes. The time course was linear using 2 nM kallikrein greater than 30 minutes. More specifically, the assay was run as follows: • 100 nL of 0.1 mM test compound was dispensed into black 384-well non-binding Greiner BioOne 784900 plate for 1 μM final concentration; • 5 μL of 1× assay buffer was dispensed to columns 24 (low control) and 5 μL 2× human kallikrein enzyme solution was dispensed to columns 1-23 (column 23 high control); • the plate was centrifuged with a “cover” plate at 500 rpm for 1 min • the plate was pre-incubated for 30 minutes at room temperature with plate covered; • 5 μL of 2× Z-Gly-Pro-Arg-AMC peptide substrate was dispensed into the entire plate, columns 1-24; • the plate was centrifuged with a “cover” plate at 500 rpm for 1 min; • the plate was read monitoring fluorescence intensity on the BMG PHERAStar at room temperature, using fluorescence module 340 nm/440 nm.
as §1
where LC—low control=mean signal of […] 100% inhibition of human kallikrein enzyme; HC—high control=mean signal of […]+Z-Gly-Pro-Arg-AMC peptide substrate with DMSO only.
as §2
as §3, with “human kallikrein enzyme+Z-Gly-Pro-Arg-AMC” for “Factor XIa+5Fam-KLTRAETV-K5Tamra”, “human kallikrein enzyme” for “Factor XIa”, “human kallikrein enzyme;” for “Factor XIa;”

Row | IC50 [1] [nM] | IC50 [2] [nM] | SMILES
1 | 6.4 | 11.3 | C[C@@H](O)c1cnc2cc(NC(=O)[C@@H]3CCC4CC(c5c(-n6cnnn6)ccc(Cl)c5F)=CC(=O)N43)ccc2n1 (single isomer, unassigned) [ID No. 2]
2 | 9.1 | 37.4 | O=C(Nc1ccc2[nH]nnc2c1)[C@@H]1CC[C@@H]2CC(c3c(-n4cnnn4)ccc(Cl)c3F)=CC(=O)N21 [ID No. 21, (3S,8aR)—N-(1H-Benzo[d][1,2,3]triazol-5-yl)-7-(3-chloro-2-fluoro-6-(1H-tetrazol-1-yl)phenyl)-5-oxo-1,2,3,5,8,8a-hexahydroindolizine-3-carboxamide]
3 | 5.3 | 12.3 | CO[C@@H]1C[C@@H](C(=O)Nc2ccc3nccnc3c2)N2C(=O)C=C(c3c(-n4cnnn4)ccc(Cl)c3F)CC12 (mixture of isomers) [ID No. 46, (1R,3S)-7-[3-Chloro-2-fluoro-6-(tetrazol-1-yl)phenyl]-1-methoxy-5-oxo-N-quinoxalin-6-yl-2,3,8,8a-tetrahydro-1H-indolizine-3-carboxamide]
4 | 3.9 | 7.5 | C[C@H]1C[C@@H](C(=O)Nc2ccc3nccnc3c2)N2C(=O)C=C(c3c(-n4cnnn4)ccc(Cl)c3F)C[C@@H]12 (single isomer, unassigned) [ID No. 79, (1S*,3S,8aS*)-7-[3-Chloro-2-fluoro-6-(tetrazol-1-yl)phenyl]-1-methyl-5-oxo-N-quinoxalin-6-yl-2,3,8,8a-tetrahydro-1H-indolizine-3-carboxamide]
5 | > 50 | 109 | CC(C)(O)c1nc2cc(NC(=O)[C@@H]3CCC4CC(c5c(-n6cnnn6)ccc(Cl)c5F)=CC(=O)N43)ccc2s1 (mixture of isomers) [compound 90]
6 | 21.4 | 86.3 | O=C(Nc1ccc(-n2ccnn2)cc1)[C@@H]1CCC2CC(c3c(-n4cnnn4)ccc(Cl)c3F)=CC(=O)N21 (mixture of isomers) [ID No. 48, (3S)—N-(4-(1H-1,2,3-triazol-1-yl)phenyl)-7-(3-chloro-2-fluoro-6-(1H-tetrazol-1-yl)phenyl)-5-oxo-1,2,3,5,8,8a-hexahydroindolizine-3-carboxamide]
7 | 1.8 | 11.2 | O=C(Nc1ccc(-c2n[nH]c(=O)o2)cc1)[C@@H]1CCC2CC(c3c(-n4cnnn4)ccc(Cl)c3F)=CC(=O)N21 (mixture of isomers) [ID No. 75, (3S)-7-[3-Chloro-2-fluoro-6-(tetrazol-1-yl)phenyl]-5-oxo-N-[4-(2-oxo-3H-1,3,4-oxadiazol-5-yl)phenyl]-2,3,8,8a-tetrahydro-1H-indolizine-3-carboxamide]
8 | 4.2 | 19.3 | O=C(Nc1ccc2nn(C(F)F)cc2c1)[C@@H]1CCC2CC(c3c(-n4cnnn4)ccc(Cl)c3F)=CC(=O)N21 (single isomer, unassigned) [ID No. 22, (3S,8aS*)-7-(3-Chloro-2-fluoro-6-(1H-tetrazol-1-yl)phenyl)-N-(2-(difluoromethyl)-2H-indazol-5-yl)-5-oxo-1,2,3,5,8,8a-hexahydroindolizine-3-carboxamide]
9 | 5.4 | 19 | O=C(Nc1ccc2n[nH]nc2c1)[C@@H]1CCC2CC(c3c(-n4cnnn4)ccc(Cl)c3F)=CC(=O)N21 (mixture of isomers) [ID No. 56, (3S)—N-(2H-benzo[d][1,2,3]triazol-5-yl)-7-(3-chloro-2-fluoro-6-(1H-tetrazol-1-yl)phenyl)-5-oxo-1,2,3,5,8,8a-hexahydroindolizine-3-carboxamide]
10 | 18.2 | 71.7 | O=C1Cc2cc(NC(=O)[C@@H]3CC[C@@H]4CC(c5c(-n6cnnn6)ccc(Cl)c5F)=CC(=O)N43)ccc2N1 [ID No. 12, (3S,8aR)-7-(3-Chloro-2-fluoro-6-(1H-tetrazol-1-yl)phenyl)-5-oxo-N-(2-oxoindolin-5-yl)-1,2,3,5,8,8a-hexahydroindolizine-3-carboxamide]
11 | 12.9 | 68.4 | O=C1CCc2cc(NC(=O)[C@@H]3CC[C@@H]4CC(c5c(-n6cnnn6)ccc(Cl)c5F)=CC(=O)N43)ccc2N1 [ID No. 13]
12 | 0.9 | 70.8 | O=C(O)c1ccc(NC(=O)[C@@H]2CC[C@@H]3CC(c4c(-n5cnnn5)ccc(Cl)c4F)=CC(=O)N32)cc1F (single isomer, unassigned) [ID No. 52, (3S,8R*)-4-[[7-[3-Chloro-2-fluoro-6-(tetrazol-1-yl)phenyl]-5-oxo-2,3,8,8a-tetrahydro-1H-indolizine-3-carbonyl]amino]-2-fluoro-benzoic acid]
13 | 19.3 | 27.8 | CC1C[C@@H](C(=O)Nc2ccc3n[nH]cc3c2)N2C(=O)C=C(c3c(-n4cnnn4)ccc(Cl)c3F)CC12 (mixture of isomers) [ID No. 84, (3S)-7-[3-Chloro-2-fluoro-6-(tetrazol-1-yl)phenyl]-N-(2H-indazol-5-yl)-1-methyl-5-oxo-2,3,8,8a-tetrahydro-1H-indolizine-3-carboxamide]
14 | 20.8 | 64.9 | CN(C)c1ccnc2ccc(NC(=O)C3CCC4CC(c5c(-n6cnnn6)ccc(Cl)c5F)=CC(=O)N43)cc12 (stereo not drawn) [compound 87]
15 | 31.8 | 57 | Cc1nc(-c2ccc(NC(=O)[C@@H]3CC[C@@H]4CC(c5c(-n6cnnn6)ccc(Cl)c5F)=CC(=O)N43)cc2)no1 (single isomer, unassigned) [ID No. 50]
